Laboratory results reported in patent US9932584B2, “Interfering RNA delivery system and uses thereof” (Arrowhead Pharmaceuticals Inc., priority 2012, dated 2018).

Tested on: PPIB mRNA
Assay: siRNA delivery with CPP-10H peptides, PPIB mRNA by Taqman qRT-PCR
Format: cell-based
Conditions: GTM-3 cells; for suppression of PPIB mRNA expression: PPIB siRNA complexed with peptide 20:1 peptide:siRNA, 1 hour, 48 hour post-transfection, normalized to β-actin mRNA, relative to non-treated cells
Protocol: The ability of 10 histidine residues (10H) to enhance endosomal release of siRNAs delivered using certain cell penetrating peptides (CPPs) was examined. […] (SEQ ID NO: 12). Peptidyl-prolyl cis-trans isomerase B (PPIB) siRNA and Non-Targeting siRNA #2 (NTC2) (Thermo Fisher Scientific, Dharmacon Products, Lafayette, Colo.) were complexed with TAT-10H, CTP-10H, and YM3-10H peptides (Abgent, Inc., San Diego, Calif.) at a 20:1 peptide: siRNA molar ratio for 30 minutes at room temperature, and applied to GTM-3 cells (Pang, I. H., et al., 1994 Curr Eye Res. 13:51-63) at a final siRNA concentration of 100-800 nM for 1 hour. PPIB mRNA and β-actin mRNA levels were determined by Taqman qRT-PCR assay (Applied Biosystems, Austin, Tex.) at 48 hour post-transfection (FIG. 1). Data were normalized to β-actin mRNA, and expressed relative to PPIB mRNA level in non-treated cells.

In the case of “CHHHHHGGRRARRRRRRHHGHHC (CHHHHHGGRRARRRRRRHHHHHC) [CTP-10H]”, the “non-specific silencing of PPIB mRNA expression with NTC2 control” value (NTC2 non-targeting siRNA delivered with peptide, 800 nM siRNA, possibly due to a cytotoxic effect) is reported as “significant silencing”, the “suppression of PPIB mRNA expression” value (100 nM siRNA) is reported as about 80% and the “suppression of PPIB mRNA expression” value (200 nM siRNA) is reported as at least 90%. The “suppression of PPIB mRNA expression” value (800 nM siRNA) was at least 90%.
